Data on 9 compounds can be found in patent US8471036B2, “Rhodacyanine derivative and pharmaceutical composition for treating leishmaniasis” (FUJIFILM Corporation, priority 2009, dated 2013).

The subject of data set [1] is Peritoneal macrophages from NMRI mice. Nature of the data set: Toxic effect on macrophages in the macrophage test. The settings on record: murine peritoneal macrophages in the macrophage test. It is filed as cell-based. The method, then:
Peritoneal macrophages from NMRI mice are collected 1 day after stimulation of macrophage production with an intraperitoneal injection of 2 mL of a 2% potato starch suspension. The present test was conducted at 37° C. under an atmosphere having a CO2 concentration of 5%. Each of the compounds to be used in the test was dissolved in DMSO to give a test solution having a predetermined concentration.
100 μL of a murine macrophage suspension (4×10^5/mL) in a RPMI 1640 medium containing bicarbonate and N-2-hydroxyethylpiperazine-N′-2-ethanesulfonic acid (HEPES) and supplemented with 10% heat-inactivated fetal bovine serum (RPMI/FBS medium) was added to wells of 96-well culture plates. After 24 hours, 100 μL of a suspension containing amastigotes (1.2×10^6/mL) was further added to each well, giving a suspension having a amastigotes/macrophages ratio of 3/1. The amastigotes were prepared in the same manner as above, and suspended in the RPMI/FBS medium. After 24 hours, the medium containing free amastigotes was removed, the cells were washed once with medium, and fresh media containing the test compound at serial dilutions (four 3-fold dilutions for each compound) were added to the wells. The growth of the protozoa in samples treated with the test-compound-containing media was compared with that of the control. Specifically, after 4 days of incubation, the samples were fixed with methanol, and thereafter stained with a 10% Giemsa solution. The IC50 values were determined based on the number of infected macrophages.
It is unexpected and surprising finding that such a harsh toxic effect against macrophages is reduced by introduction of a halogen atom, particularly a fluorine atom, according to the invention, and anti-leishmania activity is manifested.

Data set [2] relates to Rat-derived L6 cells (rat skeletal myoblast cells). The data set is described as follows: Rat L6 cell proliferation inhibition test. It is filed as cell-based. The method, then: Rat-derived L6 cells (rat skeletal myoblast cells) were used. The cells were cultured at 37° C. at a CO2 concentration of 5%, using, as a culture medium, a RPMI 1640 medium supplemented with 1% L-glutamine (200 mM) and 10% fetal bovine serum (FBS).
Each of the compounds to be tested was dissolved in DMSO to give a test solution having a concentration of 10 mg/mL.
96-well culture plates of which each well contained 4×10^4 cells in 100 μL of the culture medium were prepared. After 24 hours, a 3-fold dilution series was prepared according to an ordinary method by adding a medium containing the compound to be tested, and the test was conducted.
After incubating the culture plates for 72 hours in an incubator, the plates were inspected with respect to proliferation activity. The inspection was conducted as follows. 10 μL of the Alamar Blue aqueous solution as described above was added to each well, and the plates were incubated for another 2 hours. Then, the culture plates were mounted on a microplate fluorometer, and irradiated with light at an excitation wavelength of 536 nm. The intensity of fluorescence at 588 nm was measured, and the residual ratios of L6 cells in the group added with the test solution and in the control were calculated.
The 50% proliferation inhibitory concentration (IC50) values were determined based on the residual ratios of cells obtained above, and the results are shown in Table 1. In Table 1, “ND” represents that the test was not conducted.

Data set [3] concerns Leishmania donovani (L. Don, MHOM/ET/67/L82 strain). The data set is described as follows: Leishmania protozoa proliferation inhibition test (amastigotes, Alamar Blue). In kind it is cell-based. The settings on record: for Selective Toxicity Coefficient: (IC50 against rat L6 cells)/(IC50 against leishmania protozoa). The procedure: In this test, Leishmania donovani (L. Don, MHOM/ET/67/L82 strain) was used. The protozoa were maintained in the Syrian Golden hamster, and amastigotes were collected from the spleen of an infected hamster. A SM medium supplemented with 10% heat-inactivated fetal bovine serum was used in the experiment, and the pH was adjusted to 5.4. The protozoa were grown at 37° C. under an atmosphere having a CO2 concentration of 5%. The activity with respect to inhibition of the proliferation of leishmania protozoa was studied for Compounds A, C, and D according to the invention for test, and for MKT-077, Compound X, and miltefosine (positive compound, existing drug) as comparative compounds. The structures of the compounds are as shown below. Each compound was dissolved in DMSO to give a test solution having a predetermined concentration. Each of the compounds to be used in the test was dissolved in DMSO to give a test solution having a concentration of 10 mg/mL. Assays were performed in 96-well culture plates, with each well containing 100 μL of the culture medium containing 10^5 amastigotes with or without the test compound at a predetermined serial dilution. The test was conducted twice. […] Each culture plate was mounted on a microplate fluorometer, and irradiated with light at an excitation wavelength of 536 nm. The intensity of fluorescence at 588 nm was measured, and the residual ratios of leishmania protozoa in the group added with the test solution and in the control were calculated. […] The selective toxicity coefficient, which is used as an index of the selectivity against leishmania protozoa, was calculated according to the following equation, and the drug efficacy was evaluated. Selective toxicity coefficient=(IC50 value of the test compound against rat L6 cells)/(IC50 value of the test compound against leishmania protozoa)

The test system of data set [4] is leishmania protozoa in macrophages (L. Don). The data set is described as follows: Leishmania protozoa proliferation inhibition test in macrophages. In kind it is cell-based, Leishmania donovani. The settings on record: amastigotes in murine peritoneal macrophages, 4 days incubation, number of infected macrophages. The procedure:
The inhibitory activity on the proliferation of leishmania protozoa in macrophages was examined for Compounds A and B according to the invention and comparative compounds MKT-077, Compound X, Compound Y, Compound Z, and miltefosine (positive compound, existing drug). The structures of the compounds are as shown below. Peritoneal macrophages from NMRI mice are collected 1 day after stimulation of macrophage production with an intraperitoneal injection of 2 mL of a 2% potato starch suspension. The present test was conducted at 37° C. under an atmosphere having a CO2 concentration of 5%. Each of the compounds to be used in the test was dissolved in DMSO to give a test solution having a predetermined concentration. […] After 24 hours, 100 μL of a suspension containing amastigotes (1.2×10^6/mL) was further added to each well, giving a suspension having a amastigotes/macrophages ratio of 3/1. The amastigotes were prepared in the same manner as above, and suspended in the RPMI/FBS medium. After 24 hours, the medium containing free amastigotes was removed, the cells were washed once with medium, and fresh media containing the test compound at serial dilutions (four 3-fold dilutions for each compound) were added to the wells. […] The IC50 values were determined based on the number of infected macrophages.

Data set [5] relates to L. donovani (strain MHOM/ET/67/HU3). Nature of the data set: Anti-leishmania activity test using mice infected with leishmania. It is filed as in vivo, Female BALB/c mice. The settings on record: amastigotes per 500 liver cells. The procedure:
Compound A was used as the test compound in this test. Further, a pentostam-sensitive L. donovani (strain MHOM/ET/67/HU3) was used in this test, and the protozoa were maintained in Syrian Golden hamsters, and amastigotes were isolated from spleen cells of the infected hamster. Then, an inoculum containing 7.5×10^7 amastigotes/mL in RPMI 1640 was prepared. Female BALB/c mice (20 g) were infected with the amastigotes by intravenous injection at the tail vein on day 0. On day 7 after infection, one mouse was sacrificed, liver smears were methanol-fixed and Giemsa-stained, thereby confirming infection. The test compound was dissolved in an aqueous solution containing 10% ethanol and 5% glucose, and administered to the mice once a day for 5 days from day 7 to day 11. 3 days after the completion of the administration of the drug, livers were removed and weighed, and smears were methanol-fixed and then Giemsa-stained. The number of amastigotes (average value) per 500 liver cells was determined by counting, and the infection inhibition rate was determined based on the comparison thereof with mice that had not been treated with the drug. Infection inhibition rate (%)=[1−(b−a)/(c−a)]×100 a: Initial infection rate b: Infection rate in the mice treated with the test solution c: Infection rate in the control mice

The mark [6] stands for this setting: Rattus norvegicus, L6, 72 h, read-out: 50% Proliferation Inhibitory Concentration IC50 L-6 Cells, rat L6 cells, 72 hours incubation, Alamar Blue.
The mark [7] stands for this setting: Leishmania donovani, 72 h, pH 5.4, read-out: 50% Proliferation Inhibitory Concentration IC50 L. Don, amastigotes, 72 hours incubation, pH 5.4, Alamar Blue.

Entries after “also recorded” stand apart in the source; their conditions may differ. Structures can show the parent of a compound that is named as a salt. Where two headings read alike, the source gives them in different places.

`CCN1CCS/C1=C\C=c1/s/c(=C\c2sc3c4ccccc4ccc3[n+]2CCO)n(CC)c1=O` [Compound Z]: the “Toxic effect against macrophages” value in data set [1] is given as “macrophages were killed by strong toxic effects; also recorded: Could not be tested as the macrophages died”.

`CCn1c(=O)/c(=C/C=C2\Sc3ccccc3N2C)s/c1=C\c1sc2ccccc2[n+]1C` [Compound X, reference compound]: the IC50 in data set [2] (setting [6]) was 125000 nM; in data set [3] (setting [7]), 52 nM. In addition, the “Toxic effect against macrophages” value in data set [1] is on record as “Could not be tested as the macrophages died”. The “Selective Toxicity Coefficient” value in data set [3] is 2,400.

Consider `CCn1c(=O)/c(=C/C=C2\Sc3ccccc3N2C)s/c1=C\c1sc2ccc(F)cc2[n+]1C` [Compound C, 2-((3-ethyl-5-(2-(3-methylbenzo[d]thiazol-2(3H)-ylidene)ethylidene)-4-oxothiazolidin-2-ylidene)methyl)-5-fluoro-3-methylbenzo[d]thiazol-3-ium maleate], for which the IC50 in data set [2] (setting [6]) came to 71700 nM; in data set [3] (setting [7]) it was 25 nM. In addition, in data set [2] (rat L6 cells), the “Toxicity toward normal cells” value is “only a weak toxicity toward normal cells”. In addition, in data set [3], the “Selective Toxicity Coefficient” value was 2,870.

Take `CCn1c(=O)/c(=C/C=C2\Sc3ccccc3N2C)s/c1=C\c1sc2ccc(F)cc2[n+]1C` (as salt: maleate) [Compound C, 2-((3-ethyl-5-(2-(3-methylbenzo[d]thiazol-2(3H)-ylidene)ethylidene)-4-oxothiazolidin-2-ylidene)methyl)-5-fluoro-3-methylbenzo[d]thiazol-3-ium maleate]: the melting point lay within 260.1 to 260.8 °C.

`CCCCCCCCCCCCCCCCOP(=O)([O-])OCC[N+](C)(C)C` [Miltefosine, miltefosine, reference compound]: the IC50 in data set [3] (amastigotes, 72 hours incubation, pH 5.4, Alamar Blue, read-out: 50% Proliferation Inhibitory Concentration IC50 L. Don) turned out to be 430 nM; in data set [4], 811 nM.

On to `CCn1c(=O)/c(=C/C=C2\Sc3ccccc3N2C)s/c1=C\c1sc2ccc(F)cc2[n+]1C` [Compound D, 2-((3-ethyl-5-(2-(3-methylbenzo[d]thiazol-2(3H)-ylidene)ethylidene)-4-oxothiazolidin-2-ylidene)methyl)-5-fluoro-3-methylbenzo[d]thiazol-3-ium methanesulfonate], for which the IC50 in data set [2] (read-out: 50% Proliferation Inhibitory Concentration IC50 L-6 Cells, rat L6 cells, 72 hours incubation, Alamar Blue, methanesulfonate) stood at 84500 nM; in data set [3] (read-out: 50% Proliferation Inhibitory Concentration IC50 L. Don, amastigotes, 72 hours incubation, pH 5.4, Alamar Blue, methanesulfonate) it was 20 nM. Further, in data set [3] (methanesulfonate), the “Selective Toxicity Coefficient” value is on record as 4,220.

Turning to `CCn1c(=O)/c(=C/C=C2\Sc3ccccc3N2C)s/c1=C\c1sc2ccc(F)cc2[n+]1C.[Cl-]` [Compound A, 2-((3-ethyl-5-(2-(3-methylbenzo[d]thiazole-2(3H)-ylidene)ethylidene)-4-oxothiazolidine-2-ylidene)methyl-5-fluoro-3-methylbenzo[d]thiazole-3-ium chloride], the IC50 in data set [2] (rat L6 cells, 72 hours incubation, Alamar Blue, read-out: 50% Proliferation Inhibitory Concentration IC50 L-6 Cells) is above 173000 nM; in data set [3] (Leishmania donovani, amastigotes, 72 hours incubation, pH 5.4, Alamar Blue, read-out: 50% Proliferation Inhibitory Concentration IC50 L. Don), 11 nM; in data set [4] (Leishmania, Macrophage, 96 h), 353 nM.

Compound `CCn1c(=O)/c(=C/C=C2\Sc3ccccc3N2C)s/c1=C\c1sc2ccc(F)cc2[n+]1C.[Cl-]` [Compound A] yielded a melting point of 274.5 to 275.6 °C. In data set [2] (rat L6 cells), the “Toxicity toward normal cells” value was “only a weak toxicity toward normal cells”. Also, the “Infection Inhibition Rate” value in data set [5] (intravenous injection 0.20 mg/kg/day × 5 days) is reported as 16.1%. Further, the “Infection Inhibition Rate” value in data set [5] (intravenous injection 1.30 mg/kg/day × 5 days) was 94.9%. Further, the “Infection Inhibition Rate” value in data set [5] (intravenous injection 4.10 mg/kg/day × 5 days) is on record as 97.1%. Besides, the “Selective Toxicity Coefficient” value in data set [3] was >15,000.

For the compound `CCN1/C(=C/C=c2\s/c(=C\c3sc4c5ccccc5ccc4[n+]3CC)n(CC)c2=O)Sc2ccc3ccccc3c21` [Compound Y], the “Toxic effect against macrophages” value in data set [1] is recorded as “macrophages were killed by strong toxic effects; also recorded: Could not be tested as the macrophages died”.
